# Values quoted from earlier work as cited in patent US20200078426A1, “TREATMENT OF CANCER BY INFUSION OF ONCOLYTIC HERPES SIMPLEX VIRUS TO THE BLOOD” (VIRTTU BIOLOGICS LIMITED, priority 2015, published 2020).
# System: squamous cell head and neck cancer
# Details: concurrent chemo-radiation arm, unresectable locally advanced disease; radiation alone 23%
smiles,measurement,value
N.N.[Cl][Pt][Cl] [cisplatin],three year overall survival,37%
